Reference: paper PMC5112770 (ACS chemical neuroscience, 2015)
Where two headings read alike, the source gives them in different places.

What was measured:
[1] = target: T1, tau (Homo sapiens, UniProt P10636); assay type: biochemical
[2] = target: T1, tau; assay type: biochemical; remark: listed apart in the source

T1 sequence (P10636 1-441 isoform P10636-8): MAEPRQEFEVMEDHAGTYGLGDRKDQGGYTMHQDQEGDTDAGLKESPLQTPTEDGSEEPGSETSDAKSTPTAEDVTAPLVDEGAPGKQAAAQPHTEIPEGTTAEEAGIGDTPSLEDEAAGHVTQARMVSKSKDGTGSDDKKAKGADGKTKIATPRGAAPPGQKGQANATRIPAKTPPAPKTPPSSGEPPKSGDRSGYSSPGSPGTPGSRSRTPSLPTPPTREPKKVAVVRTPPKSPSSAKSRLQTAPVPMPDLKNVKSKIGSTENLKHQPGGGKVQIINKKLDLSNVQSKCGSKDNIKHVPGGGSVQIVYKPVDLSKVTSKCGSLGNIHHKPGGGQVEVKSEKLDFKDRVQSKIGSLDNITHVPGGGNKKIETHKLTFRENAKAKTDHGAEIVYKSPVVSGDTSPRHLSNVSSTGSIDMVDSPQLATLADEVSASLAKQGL

## CC[C@H](C)/C=C(C)/C=C/C1=CC2=C(Br)C(=O)C(C)(OC(C)=O)C(=O)C2=CO1 (some centres unmarked) [aza-9]
[1]
  IC50: 56 ± 14 µM

## CC[C@H](C)/C=C(C)/C=C/C1=CC2=C(Br)C(=O)C(C)(O)C(=O)C2=CO1 (some centres unmarked) [aza-13]
[2]
  IC50: 216 ± 18 µM
